Results taken from US20090306012A1, “THERAPEUTIC PROTOCOLS” (priority 2001, published 2009).

What was measured:
[1] = In vivo cytotoxicity (I): general toxicity (survival); conditions: 24 mg/kg Dox, single iv bolus, 14 days
Method: Male F1 mice (C57×CBA; 11-13 weeks old), used for in vivo studies, were obtained from The Animal Central Division (Monash University, Victoria, Australia). The mice were distributed at random into each treatment group (6 per treatment group) and allowed to acclimatize for 2-3 weeks before commencing the study. […] Before a treatment group was started, blood (200 μL) from each experimental animal was collected by retroorbital sinus bleed and immediately transferred to tube containing EDTA, gently flick mixed and stored on ice until analysis. This was taken as day 0, after which the mice were given a single bolus intravenous injection via tail vein with corresponding control, drug, or HA/drug combinations. The mice were then sequentially bled on days 1, 4, 7, 10 and 14 by the aforementioned method. All blood samples were analyzed for white blood cell composition in an Adiva 120 Differential Coulter Counter (Bayer Diagnostics, USA). Throughout the duration of the study, mouse mass, food intake and general activity levels were recorded on a daily basis. On day 14, mice were sacrificed by cervical dislocation and the heart, lungs, liver, spleen, kidneys, stomach, intestines and testicles removed and immediately fixed in 10% v/v formalin in phosphate buffered saline.

Glutathione peroxidase = conditions: chronic exposure, vs control groups
Method: One week after the last injection, the rats were killed by decapitation and internal organs were fixed in 10% v/v formalin in phosphate buffered saline. Prior to tissue fixation, portions of the kidney, liver, and skeletal muscle and heart were quickly removed and placed in tubes on ice. The tissue was either used immediately or stored at −80° C. until assayed. Each sample was minced into small pieces, washed vigorously in two changes of ice cold 0.25 M sucrose containing 1 mM EDTA, then washed in 50 mM potassium phosphate buffer pH 7.8 containing 0.1 mM EDTA prior to recording the tissues ‘wet’ weight. The tissue was then resuspended in 2 mL of ice-phosphate-EDTA buffer and homogenized on ice for three 5-second bursts over 5 minutes using an Ultraturrax homogenizer. The fine suspension was made up to a final volume of 4 mL with the phosphate-EDTA buffer and used for the enzyme and GSH assays described below.
From the 4 mL tissue homogenate, 1 mL was transferred to a clean 1.5 mL Eppendorf and stored on ice. […]
SOD activity was determined measuring the Cytochrome c by the method according to McCord & Fridovich (J. Biol. Chem. 244(22): 6056-6063, 1969). GP activity was assessed by an indirect coupled assay (Paglia & Valentine, J. Lab. Clin. Med. 70(1): 158-169, 1967). […]
For control purposes, antioxidant loading from hepatic, renal and skeletal muscle extracts was also determined.

[2] = In vivo cytotoxicity (I): metabolic stress (daily body weight); set-up: species or system Male F1 mice (C57×CBA)
Text: All treatment groups were monitored for weight loss on a daily basis. At the end of the study the data were expressed as percentage of original body mass and graphed in this maimer.

[3] = tested on: reduced glutathione (GSH); assay: In vivo cardiotoxicity (II): tissue reduced glutathione (GSH) level; set-up: species or system Adult female spontaneously hypertensive rats; conditions: chronic exposure, vs control values
Method: For the GSH assay, 0.25 mL of 25% w/v metaphosphoric acid was added to the 1 mL of the original crude homogenate, mixed thoroughly and incubated on ice for 15 minutes. The protein precipitate was pelleted by centrifugation at 10,000 g for 10 minutes at 4° C. The clear supernatant was transferred to a clean tube and either stored at −70° C. for no longer than three days or GSH levels were directly determined. The level of GSH was determined using a fluorometric assay using 0-phthalaldehyde as described by Cohn & Lyle (Anal. Biochem. 14(3): 434-440, 1966).
(§1) Group 4 received no treatment.

cardiac myocytes [4] = assay: In vivo cardiotoxicity (I): cardiac damage by electron microscopy; set-up: species or system Adult female Wistar rats; conditions: chronic exposure, rats
Text: (§2) Group 6 received no treatment.
(§3) Immediately after animal sacrifice, a traverse section of the intraventricular septum was dissected from the heart and fixed in 2% glutaraldehyde, 2% paraformaldehyde and 4% glucose in phosphate buffer. Standard post-buffering, osmication and processing were followed. Specimens were examined with a Philip's electron microscope and the frequency and severity of cardiac damage in the myocardial cells were graded according to the method according to Billingham et al. (Can. Treat. Rep. 62: 865-872, 1978). In brief, blocks were selected that consisted predominantly of transected cardiac myocytes.

neutrophils = assay: Phase I clinical trial of doxorubicin + HA (HyDox) in advanced cancer: toxicity, neutrophil counts; type: in vivo, patients
Text: The eligibility criteria, for inclusion in this study, were as follows: Patients must have advanced or metastatic cancer, histologically or cytologically confirmed. Patients were not to have had previous chemotherapy or were to have had no more than one prior chemotherapy regime and were not to have had prior anthracyclines. Patients were to be aged between 18 and 75 years with ambulatory performance status and adequate bone marrow, liver and renal function.
The treatment plan provided that, in the first chemotherapy cycle, patients be randomized to receive Dox alone or Dox plus HA. The converse applied in the second cycle. In the subsequent four cycles, patients received Dox plus HA. This allowed each patient to act as his/her own control in the toxicity analysis in the first two cycles, reducing the possibility of inter-patient variability affecting result interpretation.
Injectable sodium chloride was obtained from Baxter Healthcare, Sydney, Australia, as supplied as a 500 ml infusion bag.
Therefore, the initial dose level was 30 mg/m^2, the next 45 mg/m^2 and the next 60 mg/m^2.

cardiac troponin T = assay: In vivo cardiotoxicity (I): serum levels of cardiac troponin-T (cTnT); set-up: species or system Adult female Wistar rats; conditions: weekly iv […] Dox, rats
Method: as §2
Prior to the commencement of the study, blood (500 μL) was collected from each rat via a tail vein bleed procedure. Blood was collected in 1.5 mL Capiject tube and allowed to clot for a minimum of 30 minutes. […] After pre-bleeds, each experimental animal was injected with respective drug combination or control treatment and 24 hours after administration the rats were tail-bled and processed as described above. Thereafter, animals were injected with drug combinations at weekly intervals for 12 weeks, and blood was collected 24 hours after treatment.

cardiac myocytes [5] = assay: In vivo cardiotoxicity (II): myocardial pathology by transmission electron microscopy (vacuolated myocytes); set-up: species or system Adult female spontaneously hypertensive rats; conditions: cumulative Dox 13 mg/kg, 12 weeks
Text: as §3, §1
For analyses, tissue processing and assays of antioxidant enzymes and GSH, were carried out as described in Example 2. Analysis of cardiac damage by transmission electron microscopy was also carried out as described in Example 2.
To minimize anatomical variation across treatment groups, samples of the lateral border of the left ventricle were processed for EM analysis.

[6] = tested on: peripheral blood neutrophils; assay: In vivo cytotoxicity (II): daily blood neutrophil and differential counts; set-up: species or system Male F1 mice (C57×CBA)
Method: For each treatment dosage a total of 6 groups (n=8 mice per group) were used. Data from each treatment group were established by staggering results of groups of 6 (counted individually), sampling each group every 4 days so that a daily assessment could be established. Each group was treated as described above, prior to the drug administration. -Throughout this study, blood was collected and analyzed for neutrophil content as outlined in previous examples.
Again, to normalize the data for comparison between treatments, neutropenia was expressed as a percentage of neutrophils on day 0 (before drug administration).

COc1cccc2c1C(=O)c1c(O)c3c(c(O)c1C2=O)C[C@@](O)(C(=O)CO)C[C@@H]3O[C@H]1C[C@H](N)[C@H](O)[C@H](C)O1 [Dox, doxorubicin]
Mice that survived until the end of the study [1]: 2 mice | Cardiac glutathione peroxidase levels (Glutathione peroxidase): equally increased | Maximum weight loss, % of original body mass ([2]; 9 mg/kg Dox): ~−10% | Original body mass lost ([2]; 12 mg/kg Dox, by day 11): ~13% | Original weight lost ([2]; 24 mg/kg dosage group, by day 7): ~25% | Level of hepatic GSH [3]: remained unchanged | Appearance of myocytes in the heart (electron micrographs) (cardiac myocytes [4]): vacuolated myocytes | Neutrophils as % of Day 1 (neutrophils; Patient 1, Cycle 2, 30 mg/m2, day 1): 100% | Neutrophils as % of Day 1 (neutrophils; Patient 1, Cycle 2, 30 mg/m2, day 6): 100% | Neutrophils as % of Day 1 (neutrophils; Patient 1, Cycle 2, 30 mg/m2, day 8): 109% | Neutrophils as % of Day 1 (neutrophils; Patient 1, Cycle 2, 30 mg/m2, day 10): 109% | Neutrophils as % of Day 1 (neutrophils; Patient 1, Cycle 2, 30 mg/m2, day 13): 83% | Neutrophils as % of Day 1 (neutrophils; Patient 1, Cycle 2, 30 mg/m2, day 15): 57% | Neutrophils as % of Day 1 (neutrophils; Patient 1, Cycle 2, 30 mg/m2, day 20): 57% | Neutrophils as % of Day 1 (neutrophils; Patient 1, Cycle 2, 30 mg/m2, day 21): 74% | Neutrophils as % of Day 1 (neutrophils; Patient 1, Cycle 3, 30 mg/m2, day 1): 100% | Neutrophils as % of Day 1 (neutrophils; Patient 2, Cycle 1, 30 mg/m2, day 1): 100% | Neutrophils as % of Day 1 (neutrophils; Patient 2, Cycle 1, 30 mg/m2, day 4): 120% | Neutrophils as % of Day 1 (neutrophils; Patient 2, Cycle 1, 30 mg/m2, day 8): 132% | Neutrophils as % of Day 1 (neutrophils; Patient 2, Cycle 1, 30 mg/m2, day 10): 78% | Neutrophils as % of Day 1 (neutrophils; Patient 2, Cycle 1, 30 mg/m2, day 15): 54% | Neutrophils as % of Day 1 (neutrophils; Patient 2, Cycle 1, 30 mg/m2, day 17): 40% | Neutrophils as % of Day 1 (neutrophils; Patient 2, Cycle 1, 30 mg/m2, day 21): 86% | Neutrophils as % of Day 1 (neutrophils; Patient 2, Cycle 3, 30 mg/m2, day 1): 100% | Neutrophils as % of Day 1 (neutrophils; Patient 5, Cycle 1, 30 mg/m2, day 1): 100% | Neutrophils as % of Day 1 (neutrophils; Patient 5, Cycle 1, 30 mg/m2, day 4): 78% | Neutrophils as % of Day 1 (neutrophils; Patient 5, Cycle 1, 30 mg/m2, day 7): 70% | Neutrophils as % of Day 1 (neutrophils; Patient 5, Cycle 1, 30 mg/m2, day 9): 73% | Neutrophils as % of Day 1 (neutrophils; Patient 5, Cycle 1, 30 mg/m2, day 12): 49% | Neutrophils as % of Day 1 (neutrophils; Patient 5, Cycle 1, 30 mg/m2, day 14): 38% | Neutrophils as % of Day 1 (neutrophils; Patient 5, Cycle 1, 30 mg/m2, day 16): 32% | Neutrophils as % of Day 1 (neutrophils; Patient 5, Cycle 1, 30 mg/m2, day 19): 38% | Neutrophils as % of Day 1 (neutrophils; Patient 5, Cycle 1, 30 mg/m2, day 21): 59% | Neutrophils as % of Day 1 (neutrophils; Patient 5, Cycle 3, 30 mg/m2, day 1): 100% | Neutrophils as % of Day 1 (neutrophils; Patient 7, Cycle 1, 45 mg/m2, day 1): 100% | Neutrophils as % of Day 1 (neutrophils; Patient 7, Cycle 1, 45 mg/m2, day 4): 46% | Neutrophils as % of Day 1 (neutrophils; Patient 7, Cycle 1, 45 mg/m2, day 8): 56% | Neutrophils as % of Day 1 (neutrophils; Patient 7, Cycle 1, 45 mg/m2, day 10): 41% | Neutrophils as % of Day 1 (neutrophils; Patient 7, Cycle 1, 45 mg/m2, day 12): 35% | Neutrophils as % of Day 1 (neutrophils; Patient 7, Cycle 1, 45 mg/m2, day 15): 19% | Neutrophils as % of Day 1 (neutrophils; Patient 7, Cycle 1, 45 mg/m2, day 17): 14% | Neutrophils as % of Day 1 (neutrophils; Patient 7, Cycle 1, 45 mg/m2, day 19): 21% | Neutrophils as % of Day 1 (neutrophils; Patient 7, Cycle 3, 45 mg/m2, day 1): 100% | Neutrophils as % of Day 1 (neutrophils; Patient 8, Cycle 2, 45 mg/m2, day 1): 100% | Neutrophils as % of Day 1 (neutrophils; Patient 8, Cycle 2, 45 mg/m2, day 4): 84% | Neutrophils as % of Day 1 (neutrophils; Patient 8, Cycle 2, 45 mg/m2, day 8): 85% | Neutrophils as % of Day 1 (neutrophils; Patient 8, Cycle 2, 45 mg/m2, day 10): 39% | Neutrophils as % of Day 1 (neutrophils; Patient 8, Cycle 2, 45 mg/m2, day 12): 81% | Neutrophils as % of Day 1 (neutrophils; Patient 8, Cycle 2, 45 mg/m2, day 15): 62% | Neutrophils as % of Day 1 (neutrophils; Patient 10, Cycle 1, 60 mg/m2, day 1): 100% | Neutrophils as % of Day 1 (neutrophils; Patient 10, Cycle 1, 60 mg/m2, day 4): 93% | Neutrophils as % of Day 1 (neutrophils; Patient 10, Cycle 1, 60 mg/m2, day 6): 63% | Neutrophils as % of Day 1 (neutrophils; Patient 10, Cycle 1, 60 mg/m2, day 8): 33% | Neutrophils as % of Day 1 (neutrophils; Patient 10, Cycle 1, 60 mg/m2, day 10): 4% | Neutrophils as % of Day 1 (neutrophils; Patient 10, Cycle 1, 60 mg/m2, day 13): 3% | Neutrophils as % of Day 1 (neutrophils; Patient 10, Cycle 1, 60 mg/m2, day 17): 20% | Neutrophils as % of Day 1 (neutrophils; Patient 10, Cycle 1, 60 mg/m2, day 20): 47% | Neutrophils as % of Day 1 (neutrophils; Patient 12, Cycle 1, 60 mg/m2, day 1): 100% | Neutrophils as % of Day 1 (neutrophils; Patient 12, Cycle 1, 60 mg/m2, day 4): 124% | Neutrophils as % of Day 1 (neutrophils; Patient 12, Cycle 1, 60 mg/m2, day 7): 95% | Cumulative dose of Dox at which cardiotoxicity (serum troponin T release) begins (cardiac troponin T): 9 mg/kg | Myocyte vacuolation compared with the HyDox group (cardiac myocytes [5]): almost two-three-fold greater | Duration of nadir neutropenia ([6]; 12 mg/kg): 2 days | Onset of nadir neutropenia ([6]; 12 mg/kg): 4 days | Duration of nadir neutropenia before recovery ([6]; 16 mg/kg): > 48 h
